Assay results reported in US8673306B2, “Compositions and methods of use for antibodies of dickkopf-1” (Novartis AG, priority 2006, dated 2014).
“Also recorded” adds a separate entry of the source.

Legend:
[1] = target: T1, rhDKK1 (recombinant human DKK1) (Homo sapiens, UniProt O94907); experiment: Biacore T100 SPR of captured antibody with rhDKK1; format: binding; conditions: WT DKK1
T1 construct: host or cells: HEK / HEK293
T1 sequence (O94907 32-266): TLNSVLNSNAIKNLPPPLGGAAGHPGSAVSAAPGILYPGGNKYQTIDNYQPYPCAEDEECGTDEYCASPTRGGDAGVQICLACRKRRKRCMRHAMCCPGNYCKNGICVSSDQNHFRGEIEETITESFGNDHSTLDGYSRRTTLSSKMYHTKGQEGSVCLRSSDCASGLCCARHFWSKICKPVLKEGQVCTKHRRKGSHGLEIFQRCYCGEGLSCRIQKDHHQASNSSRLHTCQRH
Experimental: FIG. 6. METHODS: The binding affinity and kinetics of lead candidates and rhDKK1 (recombinant human DKK1) (Batch BTP7757) are measured using surface plasmon resonance with a Biacore T100 (Biacore, Uppsala, Sweden) instrument containing a CM5 (S) sensor chip (Cat#BR-1006-68). Anti-Human IgG1 Fc (Jackson Immuno Research, Cat#109-006-098) is immobilized onto each flow cell, followed by capture of a lead candidate at an expected capture of about 100 RU. Finally, six concentrations of DKK1 (range 0.195-6.25 nM), with one repeat concentration, is run over the chip. Flow cells are activated for binding of DKK1 for 240 seconds, and disassociation is followed for 30 minutes. The normalized data (background subtracted) are fit to a 1:1 binding with mass transport model using Kinetics analysis in BIA evaluation 1.0 software. This experiment is carried out in triplicate, and data presented are the average of these three experiments with standard deviation.

[2] = tested on: C3H10T1/2 (10T1/2) cells; experiment: Wnt-mediated osteoblast differentiation / alkaline phosphatase secretion of C3H10T1/2 cells; format: cell-based, mouse; conditions: Wnt3A conditioned medium
Description: Upon osteoblast differentiation the 10T1/2 cells secrete alkaline phosphatase (AP), a phenomena which can be inhibited by DKK1.

[3] = tested on: DKK1 (N-degly); experiment: Biacore T100 SPR with N-DEGLY DKK1; format: binding, human
[4] = target: T2, DKK1/LRP6 binding on cell surface (Homo sapiens, UniProt O94907); experiment: DKK1-GFP binding to LRP6 on HEK293T cell surface, fluorescence microscopy; format: cell-based; conditions: HEK293T transfected with LRP6 and MESD
T2 construct: made in house; LRP6 and MESD transiently transfected into HEK293T
T2 sequence (O94907 32-266): T1 sequence (O94907 32-266)
Experimental: However, upon co-transfection of LRP6 with a surface trafficking chaperone protein, MESD, GFP-tagged DKK1 can be detected on the cell surface, illustrating the specific nature of the DKK1/LRP6 interaction.
The ability of MOR04910 to inhibit DKK1/LRP6 binding on cell surface is measured by fluorescence microscopy. HEK293T cells are either mock transfected and transiently transfected with plasmids encoding LRP6 and MESD. Cells are incubated with DKK1-GFP conditioned medium together with anti-lysozyme FAb or anti-DKK1 FAb MOR04910 for 1 hour at 37° C., and examined by fluorescence microscopy. GFP fluorescence reflects DKK1-GFP binding to overexpressed LRP6 on the plasma membrane.

[5] = tested on: subcutaneous PC3M2AC6 xenografts; experiment: Subcutaneous PC3M2AC6 xenografts in mice; conditions: mouse, in vivo, sc
[6] = tested on: PC3M2AC6 xenografts; experiment: Intratibial growth of PC3M2AC6 xenografts in mice; format: in vivo, mouse; conditions: i.v., 3 times a week for 2 weeks
Experimental: An osteolytic prostate tumor model is adapted from a method by [Kim 2003]. A variant of the osteolytic prostate tumor cell line (PC3M) that stably expresses luciferase (PC3M2AC6) is injected into the tibia of mice. The growth of the tumor is monitored by luciferase while changes in bone are monitored by micro-computerized tomography (micro-CT) and histology.
Control IgG is administered i.v., at 200 μg/mouse/day, q.d., 3 times a week for 2 weeks. Vehicle control (PBS) is administered i.v., q.d., 3 times a week for 2 weeks. Final efficacy data and body weight change are calculated after treatment.

[7] = tested on: tumor cell lines; experiment: Survival and proliferation of cancer cell lines (Cell Titer Glo); format: cell-based; conditions: 100 μg/ml, three days, three serum concentrations
Experimental: This assay is carried out in three different serum concentrations (serum free, minimal growth, and complete growth). […] Cell line supernants are analyzed for DKK1 expression by ELISA.

[8] = target: T3, DKK2 (Homo sapiens, UniProt Q9UBU2); experiment: Binding to human DKK2 (preliminary immunoprecipitation)
T3 sequence (Q9UBU2 34-259): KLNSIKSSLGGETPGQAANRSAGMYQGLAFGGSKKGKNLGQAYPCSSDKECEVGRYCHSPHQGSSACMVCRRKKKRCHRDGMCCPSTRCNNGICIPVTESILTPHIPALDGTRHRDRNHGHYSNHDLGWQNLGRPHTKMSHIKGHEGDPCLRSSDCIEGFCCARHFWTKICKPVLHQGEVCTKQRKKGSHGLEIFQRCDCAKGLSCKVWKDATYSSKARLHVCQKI
Description: Of note, neither DKK2 nor DKK4 conserve the Asparagine residue that is predicted to be targeted for glycosylation in the Cys-2 domain of DKK1.

[9] = tested on: tumor and sham implanted tibias; experiment: Bone effects in tumor-induced osteolytic model (micro-CT, histology); format: in vivo, mouse
Experimental: An osteolytic prostate tumor model is adapted from a method by [Kim 2003]. A variant of the osteolytic prostate tumor cell line (PC3M) that stably expresses luciferase (PC3M2AC6) is injected into the tibia of mice. The growth of the tumor is monitored by luciferase while changes in bone are monitored by micro-computerized tomography (micro-CT) and histology. […] Cortical damage is scored from 0=no damage to 3=severe damage. FIG. 12B. Cortical damage in tumor-implanted tibias is manually scored by microCT analysis that are blinded with respect to the study groups. No cortical damage is observed in any of the sham implanted legs. Methods: Female nude mice at age of 12 weeks old are implanted intatibially with 2×10^5 PC-3M2AC6 cells in the left tibia and sham-injection in the right tibia. Treatments started on day 5 post implantation. […] Vehicle (PBS) control is also administered q.d., 3 times a week for 2 weeks. Animals are scanned at day 7, 14, and 18 post tumor implantation using the μ-CT VivaCT40 Scanner (SCANCO, Switzerland). Trabecular bone density (BV/TV) is analyzed as described in methods. An asterisks (*) indicates statistical significant difference from both vehicle and IgG controls (n=12) at the same time point at p<0.05. In FIG. 13, to determine the bone mass, the secondary spongiosa of the tibia is imaged with the Zeiss Imager Z.1 and Axiovision software based on Giemsa stain. The readout is based on the percent calcified bone in the entire field. Every column represents the mean and standard deviation of the stated number of animals. In the PBS, IgG, and anti-DKK1/4 antibody treated groups, only animals with tumor are analyzed. […] Statistic: Dunnett Multiple Comparisons Test One-Way ANOVA. Left legs or right legs compared to the respective leg in the PBS group p<0.05*, p<0.01**, p>0.05 n.s. […] Trabecular bone density (BV/TV) is analyzed as described in methods. * indicates statistical significant difference from all controls including, vehicle, IgG, drill only, and naïve animals at the same time point at p<0.05.

[10] = target: DKK3 (Homo sapiens, UniProt Q9UBP4); experiment: Biacore T100 binding to human DKK3
Sequence of DKK3 (Q9UBP4 22-350): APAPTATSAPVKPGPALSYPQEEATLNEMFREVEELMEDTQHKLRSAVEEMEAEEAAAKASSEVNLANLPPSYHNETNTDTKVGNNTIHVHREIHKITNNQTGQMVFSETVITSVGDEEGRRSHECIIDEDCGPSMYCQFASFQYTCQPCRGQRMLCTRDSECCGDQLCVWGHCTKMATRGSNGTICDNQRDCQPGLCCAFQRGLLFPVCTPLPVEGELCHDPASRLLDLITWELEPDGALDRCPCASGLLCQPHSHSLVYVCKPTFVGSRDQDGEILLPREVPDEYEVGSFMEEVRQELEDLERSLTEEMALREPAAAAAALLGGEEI

[11] = tested on: N-linked deglycosylated rhDKK1; experiment: ELISA binding to N-linked deglycosylated rhDKK1; parameters: species or system human; conditions: PNGase F treated rhDKK1, relative to WT

Ka [1]: 7.449e+06 M⁻¹ s⁻¹ | Kd [1]: 2.319e-05 s⁻¹ | Kd [3]: 0.0003071 s⁻¹ | binding to DKK3 [10]: does not bind DKK3 | Percent Binding, DKK1 (dyglycosylated) [11]: 12-18%
Substance: anti-DKK1/4 antibody: neutralizing anti-DKK1/4 antibody sharing the same variable regions as MOR04910 (4910 chains SEQ ID NO: 111/115, BHQ880)
reversal of DKK1 inhibited alkaline phosphatase secretion [2]: blocks DKK1 suppression of 10T1/2 differentiation | Ka [3]: 1.424e+06 M⁻¹ s⁻¹ | inhibition of DKK1/LRP6 binding on cell surface [4]: blocks DKK1 interactions with LRP6 on cell surfaces | effect on subcutaneous xenograft growth [5]: non-significant trend toward inhibition | effect on intratibial tumor growth [6]: trended toward inhibition of tumor growth | effect on survival and proliferation of cancer cell lines [7]: No significant changes | binding to DKK2 [8]: does not specifically bind DKK2; also recorded: no significant binding to DKK2 | anti-osteolytic activity compared with Zometa ([9]; mouse, in vivo): equivalent anti-osteolytic activity as Zometa | tumor-induced cortical bone damage ([9]; mouse, in vivo): inhibits tumor-induced cortical bone damage | production of bone / bone volume ([9]; tumor and sham implanted tibias): increases the production of bone in both tumor and sham implanted tibias
